Like-named read-outs stand apart in the source and are kept apart here. No end group written: not given here. *: point of attachment. Biotin = O=C1N[C@H]2[C@H](CS[C@H]2CCCCC(=O)*)N1
Experiments:
[1] = system: NOD/SCID mice transplanted with HL-60 cells; settings: 30 mg/kg subcutaneous, twice a week from day 20 after transplantation
Experimental: The 5-week-old female NOD/SCID mice (purchased from the Animal Experimental Center of the Institute of Basic Medical Science, Chinese Academy of Medical Sciences) cultured in a special sterile environment were used. Prior to the experiment, animals should be acclimated to the laboratory environment for 1 week. 1×10^6 HL-60 cells were suspended in 100 μL ethylene diamine tetracetic acid sodium (EDTA)/PBS and injected intravenously into NOD/SCID mice subjected to sub-lethal irradiation (250 cGy). […] From day 20 after transplantation, the mice were injected with E5 (30 mg/kg, n=9), cyclophosphamide (CTX, 36 mg/kg, n=9), or sterile water (n=8) respectively twice a week to observe the state and weight changes of the mice, wherein E5 and sterile water were injected into mice by subcutaneous injection and cyclophosphamide was injected into mice by intraperitoneal injection.

[2] = system: leukemia cells HL-60 and U937 cells; settings: 24 h
Experimental: The effect of E5 polypeptide on the apoptosis of leukemia cells HL-60 and U937 cells was examined by FITC-Annexin V/PI (eBioscience, Australia) double-staining assay. HL-60 and U937 cells were harvested in logarithmic growth phase. The cell suspensions and E5 aqueous solutions at different concentrations were added to 24-well plates. After incubation for 24 h, the cells were collected and washed with PBS. FITC-Annexin V and PI were added after the cells were resuspended in a binding buffer (10 mM Hepes/NaOH, pH 7.4, 140 mM NaCl, 2.5 mM CaCl2). After incubating for 10 min at room temperature, 1.5×10^4 cells were analyzed by flow cytometer (Accuri C6, BD, USA).

HL-60 cells = settings: CXCL12 200 ng/mL, 24 h
Experimental: (§1) HL-60 and U937 cells were harvested in logarithmic growth phase and suspended in RPMI-1640 medium without FBS. 200 μL of the suspension containing 20×10^4 cells and aqueous solutions of E5 at different concentrations were added to the upper chamber of a trans well chamber (PET microporous filter membrane with a diameter of […] was used for HL-60, and PET microporous filter membrane with a diameter of 5 μm was used for U937) so that the final concentration of the polypeptide molecule was 0.1 μM, 1.0 μM, and 10 μM respectively, and an aqueous solution was added for use as a blank control. 800 μL of the RPMI-1640 medium without FBS was added to the lower chamber, along with adding aqueous solutions of CXCL12 at concentrations of 200 ng/mL and 50 ng/mL respectively to induce HL-60 and U937 cells. The culture plates were incubated in an incubator under 37° C., 5% CO2 for 24 h. The trans well chambers were removed and the number of the migrated cells in the lower chamber was calculated.

U937 cells = settings: CXCL12 50 ng/mL, 24 h
Experimental: as §1

For Biotin-GGRSFFLLRRIQGCRFRNTVDD [E5], the “survival time of mice versus cyclophosphamide group and control group” value [1] was “longer survival time”, the “weight of mice versus cyclophosphamide group and control group” value [1] was “much higher” and the “apoptosis rate of leukemia cells” value ([2]; 50 μM) was 10%. For the same substance, the “apoptosis rate of leukemia cells” value ([2]; 80 μM) was 22%, the “effect on apoptosis of leukemia cells HL-60 and U937 cells” value ([2]; concentration below 20 μM) was “negligible” and the “apoptosis rate of leukemia cells” value ([2]; concentration higher than 20 μM) was “increased rapidly”. For the same substance, the “decrease of migration ability of HL-60 cells (longitudinal)” value (shortened to “decrease … of HL-60 cells (longitudinal)”) (HL-60 cells; 0.1 μM) was 35.00%, the “decrease … of HL-60 cells (longitudinal)” value (HL-60 cells; 1.0 μM) was 39.00% and the “decrease … of HL-60 cells (longitudinal)” value (HL-60 cells; 10 μM) was 64.00%. For the same substance, the “decrease of migration ability of U937 cells (longitudinal)” value (“decrease … of U937 cells (longitudinal)” below) (U937 cells; 0.1 μM) was 17.00%, the “decrease … of U937 cells (longitudinal)” value (U937 cells; 1.0 μM) was 23.00% and the “decrease … of U937 cells (longitudinal)” value (U937 cells; 10 μM) was 20.00%.

Source: patent US20170360897A1, “POLYPEPTIDE AND POLYPEPTIDE COMPLEX FOR SUPPRESSING TUMOR METASTASIS AND TREATING LEUKEMIA AS WELL AS PREPARATION METHOD THEREFOR AND APPLICATION THEREOF” (National Center for Nanoscience and Technology, China, priority 2014, published 2017)
